The results in this text go back to PubChem BioAssay AID493130 (Broad Institute, 2011).

Molecules are shown by their SMILES. Records with an inconclusive call do not appear. Active and inactive are the calls of the source.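 Rule for the calls: active = signal-lowering compounds whose fitted half-maximal concentration is at most ten times their highest tested dose; inconclusive = flat fit between -30 and -70%, or poor fit; inactive = flat within 30%, signal rising, or potency beyond limit.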

The target in one assay is POS-1 (Caenorhabditis elegans) binding to mex-3 RNA. Description: C. elegans POS-1 RNA interaction disruptors – biochemical, fluorescence polarization, cherry-picked samples, set 2, counter-screen for MEX-5 RNA-binding inhibitor project, dose response (AID 493130).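 Note: POS-1 as maltose binding protein fusion made in E. coli with FITC RNA.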 The conditions noted are these: POS-1/mex-3 RNA fluorescence polarization, 1 h. On the technique in general: Polarisation of emitted light reports the rotation of a fluorescent probe.
Regarding `Cc1cc(C)c2c(c1)NC(C(=O)O)C1CC=CC21` (stereo not drawn), the concentration at half-maximal activity (AC50) was 6.96 µM.

With `CCc1ccc[n+](-c2[nH]c(=O)sc2/C=N/NC([S-])=Nc2ccccc2)c1`, the half-maximal activity concentration (AC50) was 2.54 µM.

Turning to `Cc1cc(C(=O)NNC(=O)CCCCC(=O)NNC(=O)c2cc(C)[nH]n2)n[nH]1`, the AC50 is > 10 µM (inactive).

Turning to `Oc1ccc(/C=N/NC(=S)Nc2cccnc2)cc1O`, the AC50 is 9.5 µM.

With `O=C1C(Cl)=C(NC(=O)c2ccccc2)C(=O)C(Cl)=C1NC(=O)c1ccccc1`, the AC50 was 10.2 µM.

For `O=C(c1ccc(Cl)cc1)C1C2C(=O)N(c3ccccc3)C(=O)C2C2CCCN21` (stereo not drawn), the AC50 was 5.95 µM.

`CC1CC(=O)c2c(cc3c(-c4c(O)cc(O)c5c(O)c6c(cc45)OC(C)CC6=O)c(O)cc(O)c3c2O)O1` (stereo not drawn): the AC50 was 8.29 µM.

Regarding `CN1CCN(c2ccc([N+](=O)[O-])c3no[n+]([O-])c23)CC1`, the concentration at half-maximal activity (AC50) is 3.3 µM.

`Cc1ccc(C(=O)NNC(=O)c2ccc3ccccc3c2O)cc1`: the half-maximal activity concentration (AC50) is 7.78 µM.

The same assay, now with this note: POS-1/mex-3 RNA fluorescence polarization, 1 h; at 10 µM (top of the series).
As for `CC1(N2CCOCC2)CC2(O)C(=[N+]1[O-])CCc1c2no[n+]1[O-]` (stereo not drawn), the “activity change, negative = inhibition” value is “inactive”.

Regarding `CC(=O)N1CCc2c(sc(NC(=O)C3CCCN3S(=O)(=O)c3cccs3)c2C#N)C1` (stereo not drawn), the “activity change, negative = inhibition” value is “inactive”.

Consider `CN(C)S(=O)(=O)c1ccc(Cl)c(C(=O)Nc2cccc3ncccc23)c1`, for which the “activity change, negative = inhibition” value was “inactive”.

As for `COc1ccc(NCc2cccnc2)cc1`, the “activity change, negative = inhibition” value is “inactive”.

For `O=C(O)c1ccccc1N=Nc1c(O)[nH]c2ccc([N+](=O)[O-])cc12`, the “activity change, negative = inhibition” value was “inactive”.

Consider `CC1CN(Cc2c(O)ccc3c2oc(=O)c2ccccc23)CC(C)O1` (stereo not drawn), for which the “activity change, negative = inhibition” value was “inactive”.

On to `O=c1oc2cc([N+](=O)[O-])ccc2nc1/C=C(\O)c1cccc(Br)c1`, for which the “activity change, negative = inhibition” value is “inactive”.

As to `CC1=CC2=C(OC1N(C)C)c1cccc3cccc(c13)C2=O` (stereo not drawn), the “activity change, negative = inhibition” value was “inactive”.

Take `O=C(NN=C1C2CC3CC1CC(Cl)(C3)C2)c1ccccn1`: the “activity change, negative = inhibition” value was “inactive”.

In the case of `CCc1ccc(/C=C2/C(=O)N(CC)C(=S)N2C)s1`, the “activity change, negative = inhibition” value is “inactive”.

As for `CC(C)CNC(=O)c1ccccc1Oc1ccccc1`, the “activity change, negative = inhibition” value was “inactive”.

For the molecule `CCOC(=O)NNc1ccc2nonc2c1[N+](=O)[O-]`, the “activity change, negative = inhibition” value was “inactive”.

Take `Cc1nc2cc(C(=O)O)ccc2n1-c1ccc(F)cc1F`: the “activity change, negative = inhibition” value was “inactive”.

With `Cc1ccc(NC(=O)CCC(=O)NNC(=S)Nc2ccccc2)c(C)c1`, the “activity change, negative = inhibition” value was “inactive”.

On to `COc1cc(/C=C2/C(=O)NN(c3ccc(Cl)c(Cl)c3)C2=O)cc([N+](=O)[O-])c1O`, for which the “activity change, negative = inhibition” value was “inactive”.

In the case of `O=C(NNS(=O)(=O)c1ccc(F)cc1)c1cnccn1`, the “activity change, negative = inhibition” value was “inactive”.

Consider `Cc1ccc(O)c(N=CC2=C(O)c3ccccc3C2=O)c1`, for which the “activity change, negative = inhibition” value is “inactive”.

As to `COc1cccc(NC(=O)CSc2nc3ccccc3nc2N2CCOCC2)c1`, the “activity change, negative = inhibition” value is “inactive”.

Take `O=C1S/C(=C\c2cccs2)C(=O)N1c1ccc(O)cc1`: the “activity change, negative = inhibition” value is “inactive”.

As for `N=c1c(C(=O)NC2CCCC2)cc2c(=O)n3ccccc3nc2n1C1CCCC1`, the “activity change, negative = inhibition” value was “inactive”.

Take `O=c1[nH]c(=O)n(Cc2ccccc2)c(O)c1/C=C1\C=Nc2ccccc21`: the “activity change, negative = inhibition” value is “inactive”.

As to `O=C(O)CC1S/C(=N/N=C/c2ccc(-c3ccccc3[N+](=O)[O-])o2)NC1=O` (stereo not drawn), the “activity change, negative = inhibition” value was “inactive”.

Regarding `COc1ccc(C2NC(=O)N(CCCC(=O)O)C(C)=C2C(=O)OCc2ccccc2)cc1` (stereo not drawn), the “activity change, negative = inhibition” value is “inactive”.

For the molecule `COc1ccc(OC)c(/C=C/C(=O)Nc2ccc(OC)nc2)c1`, the “activity change, negative = inhibition” value was “inactive”.

Take `O=C1/C(=C\c2ccc(Br)o2)Cc2ccccc21`: the “activity change, negative = inhibition” value is “inactive”.

As to `CC(=O)Nc1ccc(/C=N/NC(=O)CNS(=O)(=O)c2ccccc2)cc1`, the “activity change, negative = inhibition” value is “inactive”.

With `COc1ccccc1-c1cn[nH]c1-c1ccc(O)cc1O`, the “activity change, negative = inhibition” value was “inactive”.

For the molecule `CN(N=Nc1ccc([N+](=O)[O-])cc1)c1ccccc1`, the “activity change, negative = inhibition” value was “inactive”.

In the case of `O=S(=O)(Nc1ccc(O)c(NS(=O)(=O)c2ccccc2)c1)c1ccccc1`, the “activity change, negative = inhibition” value was “inactive”.

In the case of `O=C1CS/C(=N\NC(=O)c2ccccc2)N1`, the “activity change, negative = inhibition” value is “inactive”.

Take `COc1cccc(OCC(=O)NNC(=O)c2cnccn2)c1`: the “activity change, negative = inhibition” value is “inactive”.

For the molecule `CCN=c1scc(-c2ccco2)n1/N=C/c1ccc(O)cc1`, the “activity change, negative = inhibition” value was “inactive”.

In the case of `O=C(N/N=C/c1ccncc1)c1cc([N+](=O)[O-])cc([N+](=O)[O-])c1O`, the “activity change, negative = inhibition” value is “inactive”.

With `COC(=O)c1cc(NC(=O)c2ccccc2)c(=O)oc1C`, the “activity change, negative = inhibition” value is “inactive”.

Turning to `C/C=C(\C)CN1CCC(n2nccc2NC(=O)CCCc2ccccc2)CC1`, the “activity change, negative = inhibition” value was “inactive”.

Turning to `COc1cc(/C=N/NC(=S)Nc2cccc(C(=O)O)c2)ccc1O`, the “activity change, negative = inhibition” value was “inactive”.

Regarding `Cn1c(=O)n(C)c2cc(/C=N/N=C3/NC(=O)C(CC(=O)O)S3)ccc21` (stereo not drawn), the “activity change, negative = inhibition” value is “inactive”.

Regarding `Cn1cc(CNC(=O)C2c3ccccc3Oc3ccccc32)cn1`, the “activity change, negative = inhibition” value is “inactive”.

Take `CCc1nc2ccccc2c(=O)n1/N=C/c1ccc(OC)cc1`: the “activity change, negative = inhibition” value was “inactive”.

Consider `CC1CN2C(c3ccc([N+](=O)[O-])cc3)=CSC2=N1` (stereo not drawn), for which the “activity change, negative = inhibition” value is “inactive”.

Take `COC(=O)C1=C(C)OC(N)=C(C#N)C1c1cc(OC)c(OCC(N)=O)cc1Cl` (stereo not drawn): the “activity change, negative = inhibition” value was “inactive”.

In the case of `CC1=NOC(=O)/C1=C/c1ccc2c(c1)OCO2`, the “activity change, negative = inhibition” value was “inactive”.

On to `O=C(O)c1ccc2cccnc2n1`, for which the “activity change, negative = inhibition” value was “inactive”.

For the molecule `COc1ccc(C[C@@H]2c3cc(O)c(OC)cc3CCN2C)cc1O`, the “activity change, negative = inhibition” value was “inactive”.

For `Cc1cc([N+](=O)[O-])nn1CC(=O)NNC(=S)Nc1ccc(F)cc1`, the “activity change, negative = inhibition” value is “inactive”.

`O=c1c2ccccc2nc(/C=C/c2ccc([N+](=O)[O-])o2)n1-c1ccc(O)cc1`: the “activity change, negative = inhibition” value is “inactive”.

With `CC(=Nc1ccc(C)cc1)c1sc2ccccc2c1O`, the “activity change, negative = inhibition” value was “inactive”.

For `CNC(=O)c1c(NC(=O)c2ccc(S(=O)(=O)N(C)c3ccccc3)cc2)sc2c1CCN(C(C)C)C2`, the “activity change, negative = inhibition” value is “inactive”.

For `CCN(CC)c1ccc(/C=N/NC(=O)c2cccc(S(=O)(=O)Nc3ccccc3OC)c2)c(O)c1`, the “activity change, negative = inhibition” value is “inactive”.

As to `COC(=O)/C(C#N)=C/c1c(-c2ccccc2)nc2n1CCS2`, the “activity change, negative = inhibition” value is “inactive”.

As to `O=C(NNC(=O)c1ccc(O)c(Cl)c1)c1cccc(S(=O)(=O)N2CCOCC2)c1`, the “activity change, negative = inhibition” value is “inactive”.

For the molecule `O=c1c2ccccc2c(C=Nc2ccc(O)cc2)c(O)n1-c1nccs1`, the “activity change, negative = inhibition” value was “inactive”.

Take `COc1ccc(N(C(=O)CCl)C(C)(C(=O)Nc2c(C)cccc2C)c2ccccn2)cc1` (stereo not drawn): the “activity change, negative = inhibition” value is “inactive”.

Regarding `O=c1[nH]c(=S)n(-c2ccc(Cl)cc2)c(O)c1C=Nc1ccc(N2CCOCC2)cc1`, the “activity change, negative = inhibition” value is “inactive”.

For `O=C(NNC(=O)c1cccs1)c1csc(N2CCOCC2)n1`, the “activity change, negative = inhibition” value was “inactive”.

For `O=C(C1=NN(c2ccccc2)C2C(=O)N(c3ccccc3)C(=O)C12)c1ccccc1` (stereo not drawn), the “activity change, negative = inhibition” value is “inactive”.

Consider `O=[N+]([O-])c1cc([N+](=O)[O-])c2cccnc2c1Oc1ccccc1O`, for which the “activity change, negative = inhibition” value was “inactive”.

`N#CC1=C(N)Oc2c(O)cc3ccccc3c2C1c1ccsc1` (stereo not drawn): the “activity change, negative = inhibition” value is “inactive”.

Take `O=C(O)c1ccc(NC2=C(Cl)C(=O)c3ccccc3C2=O)cc1`: the “activity change, negative = inhibition” value was “inactive”.

As to `N#C/C(=C\c1cccc([N+](=O)[O-])c1)c1nnc2n1CCCCC2`, the “activity change, negative = inhibition” value was “inactive”.

On to `CN(C)c1ncnc2c1NC1=C(S2)C(=NCCCC(=O)O)CC(C)(C)C1`, for which the “activity change, negative = inhibition” value is “inactive”.

Regarding `CCOC(=O)CC1=C(C(=O)OCC)C(c2ccc(OC)c(OC)c2)C(C#N)=C(N)O1` (stereo not drawn), the “activity change, negative = inhibition” value was “inactive”.

On to `Cc1c(-c2ccc(F)cc2)nc(N)c(C#N)c1-c1ccco1`, for which the “activity change, negative = inhibition” value is “inactive”.

As to `CCCCN(CCCC)CCNC(=O)CNC(=O)c1cccs1`, the “activity change, negative = inhibition” value was “inactive”.

`Nc1ccc(Oc2ncccn2)cc1`: the “activity change, negative = inhibition” value is “inactive”.

With `CCOC(=O)/C=c1\s/c(=C\c2ccc(-c3ccccc3)cc2)c(=O)n1CC(=O)NCc1ccc2c(c1)OCO2`, the “activity change, negative = inhibition” value is “inactive”.

With `CSc1nsc2nc(=O)c(/C=C3\C(C)=Nc4ccc(C)cc43)c(N)n12`, the “activity change, negative = inhibition” value was “inactive”.

For `O=C(CCc1ccccc1)N/N=C\c1cc2c(cc1Br)OCO2`, the “activity change, negative = inhibition” value was “inactive”.

Regarding `COc1cc2c3c(c1OC)-c1cc(O)ccc1CC3NCC2` (stereo not drawn), the “activity change, negative = inhibition” value is “inactive”.

As for `CC1=CC(=C2C(=O)NC(=S)NC2=O)C=C(C(F)(F)F)N1Cc1ccccc1`, the “activity change, negative = inhibition” value is “inactive”.

Take `Nc1c(C(=O)Nc2ccccc2F)sc2nc(-c3cccnc3)ccc12`: the “activity change, negative = inhibition” value was “inactive”.

With `N#CC(C(=O)NC1CC1)c1nc2ccccc2nc1N1CCN(C/C=C/c2ccccc2)CC1` (stereo not drawn), the “activity change, negative = inhibition” value is “inactive”.

With `COc1ccc(-c2cn[nH]c2-c2ccc(O)cc2O)cc1OC`, the “activity change, negative = inhibition” value was “inactive”.

Consider `Cn1c(CNC(=O)c2ccc(F)cc2)cc2ccccc21`, for which the “activity change, negative = inhibition” value was “inactive”.

For orientation: AC50 means the concentration giving half of the maximal activity seen.
